{"source": "patent US5601992A", "about": "“Peptide library formats and methods relating thereto” (Bunsen Rush Laboratories, Inc., priority 1994, dated 1997)", "key": {"[1]": {"tested_on": "melanophore cells", "assay": "Pigment dispersion assay with a-MSH- and control-peptide-coated beads on a dish plated with melanophore cells", "type": "cell-based", "conditions": "TFA-treated beads on agarose gel with 20 nM melantonin; ten and 30 minutes after placement", "experimental": "a-MSH and its congener peptide (cp) were screened using a culture dish plated with melanophore cells. Melanophores were maintained in cell culture as previously described (A. Daniolos, et al., Pigment Cell Res. 3, 38 (1990); M. N. Potenza, M. R. Lerner, Pigment Cell Res. 4, 186 (1991)). Four million cells were seeded into a 100 mm tissue culture plate (actual internal diameter was 85 mm) in 20 mL of frog fibroblast conditioned media and incubated at 27° C. for 72 h. For an experiment, the media was removed from the dish and replaced with 9 mL of 0.9% Sea Plaque Agarose (FMC Corporation) prepared in fibroblast conditioned media containing 20 nM melantonin. The plate was then placed in the dark for thirty min, after which beads coated with a-MSH or the cp, were sprinkled on the agarose bed and the pigment dispersion response was monitored by photography."}, "[2]": {"biological_target": "T1, murine bombesin receptor (Mus musculus, UniProt P21729)", "T1 construct": "expressed in transfected cells; host or cells: melanophores (frog; cultured as in Potenza & Lerner), transfected by electroporation with pJG3.6BR", "T1 sequence (P21729 whole entry)": "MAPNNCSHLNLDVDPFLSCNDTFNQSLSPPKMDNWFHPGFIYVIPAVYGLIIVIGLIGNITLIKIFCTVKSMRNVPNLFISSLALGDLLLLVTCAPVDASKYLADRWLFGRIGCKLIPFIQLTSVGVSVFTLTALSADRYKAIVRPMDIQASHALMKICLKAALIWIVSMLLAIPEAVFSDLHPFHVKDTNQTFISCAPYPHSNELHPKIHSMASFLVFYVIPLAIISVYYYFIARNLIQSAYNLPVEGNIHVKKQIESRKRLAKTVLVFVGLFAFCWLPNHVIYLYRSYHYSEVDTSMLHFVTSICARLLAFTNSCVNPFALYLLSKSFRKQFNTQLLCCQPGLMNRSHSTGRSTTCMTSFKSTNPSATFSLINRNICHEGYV", "assay": "Screening of bead-released peptides (MPL) on agarose-overlaid melanophores expressing the bombesin receptor; pigment dispersion", "type": "cell-based", "conditions": "TFA-gas-cleaved beads on agarose with 2 nM melantonin", "experimental": "Melanophore cells (either transfected or non-transfected and as described in the above-identified patent application) were seeded (4×10^6)into 100 mm tissue culture plate (Falcon, N.J.). For transfected cells, the 100 mm tissue culture dishes were pre-coated with Cell-Tak (Collaborative Research, Inc., Massachusetts) at a concentration of […]. Media and conditions unless otherwise stated, were as described in the above-identified patent application. For wild type cells, no media changes are necessary and the cells can be used as soon as 24 hours after plating. For transfected cells, after the cells have attached to the surface (2-3 h), the media was removed and replaced with 20 ml of frog fibroblast conditioned media which is based on 70% L-15 media (Sigma) with 20% fetal bovine serum supplemented with L-Glutamine and Penicillin Streptomycin (Gibco). The cells were incubated at 27° C. for 12-72 h. Then 12-24 before the experiment, the media was removed and the cells were washed gently with 1×10 ml 70% EX-CELL 320 (JRH Biosciences, Kansas; 70% part A 29% water and 1% part B, hereinafter EX-CELL). […]\nThe bombesin MPL was screened for agonists using melanophore cells expressing the bombesin receptor. […] Pigment dispersion induced by peptide analogues were monitored by video image subtraction (McClintock, T., et al., Anal. Biochem. 209:298-305 (1993)). […]"}}, "note": "Where no end group is shown, it is not given here.", "data": [{"substance": "Ser-Lys-Glu-Arg-His-Ser-Trp-Tyr-NH2 (SKERHSWY-NH2) [cp, negative control peptide]", "values": [{"measurement": "pigment dispersion response", "setting": "[1]", "result": "lack of a pigment dispersion response"}]}, {"substance": "litorin", "values": [{"measurement": "pigment dispersion response of recombinant melanophores to peptide released from bead (agonist activity)", "setting": "[2]", "result": "biological activity of the free peptide released from (but still coated on) the bead was confirmed"}]}]}
